According to US9139523B2, “5-HT2B receptor antagonists” (Janssen Pharmaceutica, NV, priority 2010, dated 2015):

Assays:
Alpha2B = molecular target: T1, Alpha2B (Homo sapiens, UniProt P18089); experiment: Competitive radioligand binding, Alpha2B; conditions: CHO membranes, 3H-rauwolscine 1 nM; for IC50: read-out: pIC50 Alpha2B (converted)
T1 construct: expressed in transfected cells; host or cells: CHO (membrane fraction)
T1 sequence (P18089 1-450): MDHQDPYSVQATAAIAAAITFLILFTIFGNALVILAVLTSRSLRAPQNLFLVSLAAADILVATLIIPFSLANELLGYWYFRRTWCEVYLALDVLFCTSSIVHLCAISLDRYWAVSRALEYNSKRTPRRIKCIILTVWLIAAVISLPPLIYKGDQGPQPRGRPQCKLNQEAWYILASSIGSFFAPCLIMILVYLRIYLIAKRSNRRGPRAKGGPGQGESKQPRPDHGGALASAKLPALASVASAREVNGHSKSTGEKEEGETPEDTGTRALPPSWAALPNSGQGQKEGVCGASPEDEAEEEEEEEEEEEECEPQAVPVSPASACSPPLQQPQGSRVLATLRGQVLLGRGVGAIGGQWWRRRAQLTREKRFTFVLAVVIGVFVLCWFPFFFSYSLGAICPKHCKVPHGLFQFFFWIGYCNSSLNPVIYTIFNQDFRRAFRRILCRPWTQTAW
Method: (§1) Competitive radioligand binding assays were used to determine the affinity of the test compounds for a particular receptor. Various concentrations of the non-labelled test compound were added to the incubation mixture with the membrane fraction, containing the receptor of interest, and a fixed low concentration (nM) of the radioligand. During the incubation the radioligand bound to the receptor, but this was inhibited by the non-labelled test compound in proportion to its binding affinity and concentration.
(§2) Cell lines were established that stably express the human variant of the receptor under investigation after transfection with the appropriate cDNA (Table 1). Transfected cells were grown under standard culture conditions, and membrane fractions were obtained upon centrifugation and homogenisation of the cells. Optimal membrane dilutions for binding studies were determined and aliquots were stored at −70° C. until use. In a 96-well plate format, the appropriate radioligand was added to the membrane preparation containing the receptor under investigation. Compound solutions were prepared in DMSO, and diluted 100-fold into the multiwell plate to a final test concentration of 10^−9 to 10^−5 M. After incubation with the test compound, the unbound radioligand was removed by filtration on G/F filters with a Filtermate 96. Microscint™ was added to the washed filter plates and the radioactivity bound to the receptor was measured by liquid scintillation counting in a TopCount (Packard). To measure the Non-Specific Binding (NSB), a high concentration of the non-radiolabeled ligand was added to wells containing the membrane fraction and the radioligand.

5HT2C = molecular target: T2, 5HT2C (Homo sapiens, UniProt P28335); experiment: Competitive radioligand binding, 5HT2C; conditions: CHO membranes, 3H-mesulergin 1 nM; read-out: pIC50 5HT2C (converted)
T2 construct: expressed in transfected cells; host or cells: CHO (membrane fraction)
T2 sequence (P28335 33-458): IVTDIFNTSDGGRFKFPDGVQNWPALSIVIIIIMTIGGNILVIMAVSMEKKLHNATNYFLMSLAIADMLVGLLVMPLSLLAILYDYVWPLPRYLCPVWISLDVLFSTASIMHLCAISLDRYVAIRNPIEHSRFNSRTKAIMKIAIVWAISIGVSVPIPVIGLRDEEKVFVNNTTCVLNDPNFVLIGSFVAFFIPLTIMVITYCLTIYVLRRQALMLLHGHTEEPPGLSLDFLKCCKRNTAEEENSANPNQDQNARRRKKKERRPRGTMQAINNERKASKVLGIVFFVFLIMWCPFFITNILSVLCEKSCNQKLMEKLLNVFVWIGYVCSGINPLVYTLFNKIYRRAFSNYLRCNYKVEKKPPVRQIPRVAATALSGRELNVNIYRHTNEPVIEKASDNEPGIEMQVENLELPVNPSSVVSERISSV
Method: as §1, §2
From this, the pIC50 value (inhibitory concentration causing 50% displacement of specific binding) was determined, as well as an estimate of the slope of the plot (Hill coefficient).

5HT3A/B = molecular target: T3, 5HT3A/B (Homo sapiens, UniProt O95264+P46098); experiment: Competitive radioligand binding, 5HT3A/B; conditions: HEK293 membranes, 3H-GR65630 0.5 nM; for IC50: read-out: pIC50 5HT3A/B (converted)
T3 construct: expressed in transfected cells; host or cells: HEK293 (membrane fraction)
T3 sequence (P46098 24-478): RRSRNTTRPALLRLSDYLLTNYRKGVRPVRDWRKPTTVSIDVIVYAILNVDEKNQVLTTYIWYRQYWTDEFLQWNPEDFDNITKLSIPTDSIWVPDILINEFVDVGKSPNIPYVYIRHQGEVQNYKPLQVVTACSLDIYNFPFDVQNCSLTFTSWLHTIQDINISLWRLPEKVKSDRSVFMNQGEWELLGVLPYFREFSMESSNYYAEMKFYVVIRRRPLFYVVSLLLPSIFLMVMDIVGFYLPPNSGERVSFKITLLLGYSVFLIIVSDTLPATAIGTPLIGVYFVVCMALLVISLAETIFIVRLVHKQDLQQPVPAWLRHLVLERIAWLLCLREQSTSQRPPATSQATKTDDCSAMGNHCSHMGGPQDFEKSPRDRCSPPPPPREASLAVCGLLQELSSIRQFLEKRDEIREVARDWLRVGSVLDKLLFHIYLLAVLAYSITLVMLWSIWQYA
T3 sequence (O95264 22-441): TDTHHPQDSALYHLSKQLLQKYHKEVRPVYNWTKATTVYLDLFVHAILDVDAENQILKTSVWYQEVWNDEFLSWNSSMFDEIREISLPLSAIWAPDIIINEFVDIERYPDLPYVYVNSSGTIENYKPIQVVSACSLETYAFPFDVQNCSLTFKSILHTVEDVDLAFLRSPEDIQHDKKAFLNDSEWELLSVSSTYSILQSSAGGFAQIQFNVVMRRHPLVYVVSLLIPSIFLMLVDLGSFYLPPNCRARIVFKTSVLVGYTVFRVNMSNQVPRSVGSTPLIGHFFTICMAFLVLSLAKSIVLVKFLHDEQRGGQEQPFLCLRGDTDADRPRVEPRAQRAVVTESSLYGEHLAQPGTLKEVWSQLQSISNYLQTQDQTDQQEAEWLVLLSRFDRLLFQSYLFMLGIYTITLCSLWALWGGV
Method: as §1, §2
Using in house developed software, a best-fit curve was fitted by a minimum sum of squares method to the plot of % inhibition vs. concentration of the test compound. From this, the pIC50 value (inhibitory concentration causing 50% displacement of specific binding) was determined, as well as an estimate of the slope of the plot (Hill coefficient).

Compound	IC50 (Alpha2B)	IC50 (5HT2C)	IC50 (5HT3A/B)	pIC50 Alpha2B (Alpha2B)	pIC50 5HT3A/B (5HT3A/B)
COc1cc(N)c(Cl)cc1C(=O)N[C@H]1CCN(CCCOc2ccc(F)cc2)C[C@H]1F (single isomer, unassigned) [(−)-12, cis-4-amino-5-chloro-N-{3-fluoro-1-[3-(4-fluorophenoxy)-propyl]-piperidin-4-yl}-2-methoxybenzamide]	5.25 µM	6.61 µM	2.75 µM	–	–
COc1cc(N)c(Cl)cc1C(=O)NC1CCN(CCCOc2ccc(F)cc2)CC1(F)F (single isomer, unassigned) [Compound (−)-17, 4-amino-5-chloro-N-{3,3-difluoro-1-[3-(4-fluorophenoxy)-propyl]-piperidin-4-yl}-2-methoxybenzamide]	–	6.61 µM	–	<5	<5
COc1cc(N)c(Cl)cc1C(=O)NC1CCN(CCCOc2ccc(F)cc2)CC1(F)F (racemic) [(±)-17, 4-amino-5-chloro-N-{3,3-difluoro-1-[3-(4-fluorophenoxy)-propyl]-piperidin-4-yl}-2-methoxybenzamide]	> 10 µM	4.68 µM	> 10 µM	–	–
COc1cc(N)c(Cl)cc1C(=O)N[C@H]1CCN(CCCOc2ccc(F)cc2)C[C@H]1F (single isomer, unassigned) [(+)-12, cis-4-amino-5-chloro-N-{3-fluoro-1-[3-(4-fluorophenoxy)-propyl]-piperidin-4-yl}-2-methoxybenzamide]	3.39 µM	5.01 µM	> 10 µM	–	–
COc1cc(N)c(Cl)cc1C(=O)N[C@@H]1CCN(CCCOc2ccc(F)cc2)C[C@H]1F (single isomer, unassigned) [(−)-7, trans-4-amino-5-chloro-N-{3-fluoro-1-[3-(4-fluorophenoxy)-propyl]-piperidin-4-yl}-2-methoxybenzamide]	6.03 µM	3.72 µM	–	–	<5
COc1cc(N)c(Cl)cc1C(=O)N[C@@H]1CCN(CCCOc2ccc(F)cc2)C[C@H]1F (racemic) [(±)-7, trans-4-amino-5-chloro-N-{3-fluoro-1-[3-(4-fluorophenoxy)-propyl]-piperidin-4-yl}-2-methoxybenzamide]	2.51 µM	1.82 µM	> 10 µM	–	–
COc1cc(N)c(Cl)cc1C(=O)N[C@@H]1CCN(CCCOc2ccc(F)cc2)C[C@H]1F (single isomer, unassigned) [(+)-7, trans-4-amino-5-chloro-N-{3-fluoro-1-[3-(4-fluorophenoxy)-propyl]-piperidin-4-yl}-2-methoxybenzamide]	2.63 µM	1.23 µM	> 10 µM	–	–
COc1cc(N)c(Cl)cc1C(=O)NC1CCN(CCCOc2ccc(F)cc2)CC1(F)F (single isomer, unassigned; (+)) [(+)-17, 4-amino-5-chloro-N-{3,3-difluoro-1-[3-(4-fluorophenoxy)-propyl]-piperidin-4-yl}-2-methoxybenzamide]	> 10 µM	> 10 µM	> 10 µM	–	–
COc1cc(N)c(Cl)cc1C(=O)N[C@H]1CCN(CCCOc2ccc(F)cc2)C[C@H]1F (racemic) [(±)-12, cis-4-amino-5-chloro-N-{3-fluoro-1-[3-(4-fluorophenoxy)-propyl]-piperidin-4-yl}-2-methoxybenzamide]	2.51 µM	4.37 µM	6.76 µM	–	–
